According to patent US20160166536A1, “COMBINATION THERAPY FOR THE TREATMENT OF CANCER” (NORTHWESTERN UNIVERSITY, priority 2014, published 2016):

Experiments:
Type in all cases: cell-based
[1] = system: MDA-MB-436 cells; experiment: MTS proliferation assay, MDA-MB-436 cells on TCPS; details: 300 nM CYC065 alone, 5 nM Eribulin alone or their combination, 48 h, FIG. 2C
Procedure: (§1) The ability of a composition including Eribulin and CYC065 to inhibit inhibiting tumor cell proliferation of triple-negative breast cancer cells was evaluated in three different cell lines having the triple-negative phenotype: MDA-MB-231 (FIG. 2A), […] (FIG. 2B) and MDA-MB-436 (FIG. 2C). The cells were seeded on tissue culture plates and cultured for ˜18 h. The cells were then contacted with 300 nM CYC065 alone, 5 nM Eribulin alone or a combination of 300 nM CYC065 and 5 nM Eribulin for 48 h.
(§2) MDA-MB-231, HS-578T and MDA-MB-436 cells lines were seeded on TCPS at 5000 cells/well and cultured for ˜18 h. They were then treated with 300 nM CYC065 and 5 nM Eribulin or their combination for 48 h. Proliferation was quantified using the MTS assay. […] (N≧4 for all groups.) Data was analyzed using one-way ANOVA and comparison between groups post ANOVA was performed using Tukey HSD test.

[2] = system: HS-578T cells; experiment: MTS proliferation assay, HS-578T cells on TCPS; details: 300 nM CYC065 alone, 5 nM Eribulin alone or their combination, 48 h, FIG. 2B
Procedure: as §1, §2

[3] = system: MDA-MB-231 cells; experiment: MTS proliferation assay, MDA-MB-231 cells on tissue culture plates (2D TCPS); details: 48 h
Procedure: To evaluate the effectiveness of Eribulin and CYC065 in inhibiting tumor cell proliferation of triple-negative breast cancer cells, the breast cancer cell line MDA-MB-231 having the triple-negative phenotype was tested. MDA-MB-231 cells were seeded on tissue culture plates and cultured for ˜18 h. Cells were treated with different doses of either drug [Eribulin (0.1 nM-100 nM); CYC065 (50 nM-1000 nM)] for 48 h. Proliferation was quantified using the MTS assay.
as §1
MDA-MB-231 cells were seeded on 2D TCPS at 5000 cells/well and cultured for ˜18 h. […] Proliferation was quantified using the MTS assay.
as §2, with “They were then treated with 300 nM CYC065 and 5 nM Eribulin or their combination for 48 h.” left out

SMILES: C=C1C[C@@H]2CC[C@@]34C[C@H]5O[C@H]6[C@@H](O3)[C@H]3O[C@H](CC[C@@H]3O[C@H]6[C@H]5O4)CC(=O)C[C@@H]3[C@@H](OC)[C@@H](C[C@H](O)CN)O[C@H]3C[C@H]3O[C@@H](CC[C@@H]1O2)C[C@@H](C)C3=C [Eribulin, 2-(3-Amino-2-hydroxypropyl)hexacosahydro-3-methoxy-26-methyl-20,27-bis(methylene)11,15-18,21-24,28-triepoxy-7,9-ethano-12,15-methano-9H,15H-furo(3,2-i)furo(2′,3′-5,6) pyrano(4,3-b)(1,4)dioxacyclopentacosin-5-(4H)-one]
- inhibition of tumor cell proliferation [1]: inhibited tumor cell proliferation
- inhibition of tumor cell proliferation [2]: inhibited tumor cell proliferation
- inhibition of tumor cell proliferation ([3]; 300 nM CYC065 alone, 5 nM Eribulin alone or their combination, FIG. 2A): inhibited tumor cell proliferation
- inhibition of cell proliferation, dose response ([3]; Eribulin 0.1 nM-100 nM, CYC065 50 nM-1000 nM, FIGS. 1A, 1B): inhibit proliferation in the nM range
